From ChEMBL document CHEMBL3994622, “Design and synthesis of new RAF kinase-inhibiting antiproliferative quinoline derivatives. Part 2: Diarylurea derivatives” (Eur J Med Chem, 2017)

Tests used:
Type in all cases: functional
[1] = test system: PC-3; assay: Growth inhibition of human PC3 cells assessed as cell growth at 10 uM incubated for 48 hrs by sulforhodamine B assay relative to control; details: PC-3, 48 h, read-out: Activity
[2] = test system: PC-3; assay: Growth inhibition of human PC3 cells incubated for 48 hrs by sulforhodamine B assay; details: PC-3, 48 h
[3] = test system: UO-31; assay: Growth inhibition of human UO31 cells incubated for 48 hrs by sulforhodamine B assay; details: UO-31, 48 h
[4] = test system: SR; assay: Growth inhibition of human SR cells assessed as cell growth at 10 uM incubated for 48 hrs by sulforhodamine B assay relative to control; details: read-out: Activity
[5] = test system: CCRF-CEM; assay: Growth inhibition of human CCRF-CEM cells assessed as cell growth at 10 uM incubated for 48 hrs by sulforhodamine B assay relative to control; details: read-out: Activity
[6] = test system: SW-620; assay: Growth inhibition of human SW620 cells assessed as cell growth at 10 uM incubated for 48 hrs by sulforhodamine B assay relative to control; details: SW-620, 48 h, read-out: Activity
[7] = test system: HT-29; assay: Growth inhibition of human HT-29 cells assessed as cell growth at 10 uM incubated for 48 hrs by sulforhodamine B assay relative to control; details: HT-29, 48 h, read-out: Activity
[8] = test system: EKVX; assay: Growth inhibition of human EKVX cells assessed as cell growth at 10 uM incubated for 48 hrs by sulforhodamine B assay relative to control; details: read-out: Activity
[9] = test system: SF-539; assay: Growth inhibition of human SF539 cells assessed as cell growth at 10 uM incubated for 48 hrs by sulforhodamine B assay relative to control; details: SF-539, 48 h, read-out: Activity
[10] = test system: Hs-578T; assay: Growth inhibition of human Hs 578T cells assessed as cell growth at 10 uM incubated for 48 hrs by sulforhodamine B assay relative to control; details: read-out: Activity
[11] = test system: HOP-92; assay: Growth inhibition of human HOP92 cells assessed as cell growth at 10 uM incubated for 48 hrs by sulforhodamine B assay relative to control; details: HOP-92, 48 h, read-out: Activity
[12] = test system: MCF7; assay: Growth inhibition of human MCF7 cells assessed as cell growth at 10 uM incubated for 48 hrs by sulforhodamine B assay relative to control; details: MCF7, 48 h, read-out: Activity
[13] = test system: SN12C; assay: Growth inhibition of human SN12C cells assessed as cell growth at 10 uM incubated for 48 hrs by sulforhodamine B assay relative to control; details: read-out: Activity
[14] = test system: 786-0; assay: Growth inhibition of human 786-0 cells incubated for 48 hrs by sulforhodamine B assay; details: 786-0, 48 h
[15] = test system: UO-31; assay: Growth inhibition of human UO31 cells assessed as cell growth at 10 uM incubated for 48 hrs by sulforhodamine B assay relative to control; details: UO-31, 48 h, read-out: Activity
[16] = test system: SK-MEL-28; assay: Growth inhibition of human SK-MEL-28 cells assessed as cell growth at 10 uM incubated for 48 hrs by sulforhodamine B assay relative to control; details: SK-MEL-28, 48 h, read-out: Activity
[17] = test system: LOX IMVI; assay: Growth inhibition of human LOXIMVI cells assessed as cell growth at 10 uM incubated for 48 hrs by sulforhodamine B assay relative to control; details: read-out: Activity
[18] = test system: SK-OV-3; assay: Growth inhibition of human SKOV3 cells assessed as cell growth at 10 uM incubated for 48 hrs by sulforhodamine B assay relative to control; details: SK-OV-3, 48 h, read-out: Activity
[19] = test system: OVCAR-8; assay: Growth inhibition of human OVCAR8 cells assessed as cell growth at 10 uM incubated for 48 hrs by sulforhodamine B assay relative to control; details: OVCAR-8, 48 h, read-out: Activity
[20] = test system: HCC 2998; assay: Growth inhibition of human HCC2998 cells incubated for 48 hrs by sulforhodamine B assay; details: HCC 2998, 48 h
[21] = test system: IGROV-1; assay: Growth inhibition of human IGROV1 cells assessed as cell growth at 10 uM incubated for 48 hrs by sulforhodamine B assay relative to control; details: IGROV-1, 48 h, read-out: Activity
[22] = test system: CCRF-CEM; assay: Growth inhibition of human CCRF-CEM cells incubated for 48 hrs by sulforhodamine B assay
[23] = test system: 786-0; assay: Growth inhibition of human 786-0 cells assessed as cell growth at 10 uM incubated for 48 hrs by sulforhodamine B assay relative to control; details: 786-0, 48 h, read-out: Activity
[24] = test system: K562; assay: Growth inhibition of human K562 cells assessed as cell growth at 10 uM incubated for 48 hrs by sulforhodamine B assay relative to control; details: K562, 48 h, read-out: Activity
[25] = test system: NCI-H23; assay: Growth inhibition of human NCI-H23 cells incubated for 48 hrs by sulforhodamine B assay; details: NCI-H23, 48 h
[26] = test system: SNB-19; assay: Growth inhibition of human SNB19 cells assessed as cell growth at 10 uM incubated for 48 hrs by sulforhodamine B assay relative to control; details: SNB-19, 48 h, read-out: Activity
[27] = test system: HL-60(TB); assay: Growth inhibition of human HL-60(TB) cells incubated for 48 hrs by sulforhodamine B assay; details: HL-60, 48 h
[28] = test system: NCI-H226; assay: Growth inhibition of human NCI-H226 cells assessed as cell growth at 10 uM incubated for 48 hrs by sulforhodamine B assay relative to control; details: NCI-H226, 48 h, read-out: Activity
[29] = test system: SK-MEL-2; assay: Growth inhibition of human SK-MEL-2 cells assessed as cell growth at 10 uM incubated for 48 hrs by sulforhodamine B assay relative to control; details: SK-MEL-2, 48 h, read-out: Activity
[30] = test system: M14; assay: Growth inhibition of human M14 cells assessed as cell growth at 10 uM incubated for 48 hrs by sulforhodamine B assay relative to control; details: M14, 48 h, read-out: Activity
[31] = test system: DU-145; assay: Growth inhibition of human DU145 cells assessed as cell growth at 10 uM incubated for 48 hrs by sulforhodamine B assay relative to control; details: DU-145, 48 h, read-out: Activity
[32] = test system: OVCAR-5; assay: Growth inhibition of human OVCAR5 cells assessed as cell growth at 10 uM incubated for 48 hrs by sulforhodamine B assay relative to control; details: OVCAR-5, 48 h, read-out: Activity
[33] = test system: OVCAR-4; assay: Growth inhibition of human OVCAR4 cells incubated for 48 hrs by sulforhodamine B assay; details: OVCAR-4, 48 h
[34] = test system: ACHN; assay: Growth inhibition of human ACHN cells assessed as cell growth at 10 uM incubated for 48 hrs by sulforhodamine B assay relative to control; details: read-out: Activity
[35] = read-out: LC50 (the source's name)

## Cc1nc2cc(O)c(O)cc2cc1Oc1ccc(NC(=O)Nc2ccc(Cl)c(Cl)c2)cc1
[1]
  growth at 10 µM: 39.3%
[2]
  GI50: 4.36 µM
  TGI: > 32.5 µM
[2]; [35]
  CC50: > 32.5 µM
[3]
  GI50: 6.97 µM
  TGI: 14.9 µM
[3]; [35]
  CC50: 31.9 µM
[4]
  growth at 10 µM: 8.92%
[5]
  growth at 10 µM: 19.9%
[6]
  growth at 10 µM: 49.3%
[7]
  growth at 10 µM: 48%
[8]
  growth at 10 µM: 98.5%
[9]
  growth at 10 µM: 56.9%
[10]
  growth at 10 µM: 105%
[11]
  growth at 10 µM: 37.5%
[12]
  growth at 10 µM: 76.2%
[13]
  growth at 10 µM: 85.7%
[14]
  GI50: 7.67 µM
  TGI: 18.6 µM
[14]; [35]
  CC50: > 32.5 µM
[15]
  growth at 10 µM: 58.6%
[16]
  growth at 10 µM: 79.1%
[17]
  growth at 10 µM: 0.46%
[18]
  growth at 10 µM: 45%
[19]
  growth at 10 µM: 47.7%
[20]
  GI50: 6.7 µM
  TGI: 14.6 µM
[20]; [35]
  CC50: 32 µM
[21]
  growth at 10 µM: 67.1%
[22]
  GI50: 6.19 µM
  TGI: 21.8 µM
[22]; [35]
  CC50: > 32.5 µM
[23]
  growth at 10 µM: 103%
[24]
  growth at 10 µM: 53.9%
[25]
  GI50: 6.97 µM
  TGI: 19.6 µM
[25]; [35]
  CC50: > 32.5 µM
[26]
  growth at 10 µM: 49%
[27]
  GI50: 9.02 µM
  TGI: 22.4 µM
[27]; [35]
  CC50: > 32.5 µM
[28]
  growth at 10 µM: 38.3%
[29]
  growth at 10 µM: 77.7%
[30]
  growth at 10 µM: 80.8%
[31]
  growth at 10 µM: 60.3%
[32]
  growth at 10 µM: 122%
[33]
  GI50: 9.73 µM
  TGI: > 32.5 µM
[33]; [35]
  CC50: > 32.5 µM
[34]
  growth at 10 µM: 39%
